Laboratory results as given in publication PMC5686190 (Scientific Reports, 2017).
Values after ≈ are worked out from the molar mass of the structure shown.

Assays:
[1] = target: recombinant NA-1 (H1N1 neuraminidase) (Influenza A virus, UniProt Q9IGQ6); test: biochemical
[2] = system: bacterial NA; details: cited from earlier work
[3] = system: mouse liver sialidase; details: cited from earlier work

Sequence of recombinant NA-1 (H1N1 neuraminidase) (Q9IGQ6 whole entry, looked up): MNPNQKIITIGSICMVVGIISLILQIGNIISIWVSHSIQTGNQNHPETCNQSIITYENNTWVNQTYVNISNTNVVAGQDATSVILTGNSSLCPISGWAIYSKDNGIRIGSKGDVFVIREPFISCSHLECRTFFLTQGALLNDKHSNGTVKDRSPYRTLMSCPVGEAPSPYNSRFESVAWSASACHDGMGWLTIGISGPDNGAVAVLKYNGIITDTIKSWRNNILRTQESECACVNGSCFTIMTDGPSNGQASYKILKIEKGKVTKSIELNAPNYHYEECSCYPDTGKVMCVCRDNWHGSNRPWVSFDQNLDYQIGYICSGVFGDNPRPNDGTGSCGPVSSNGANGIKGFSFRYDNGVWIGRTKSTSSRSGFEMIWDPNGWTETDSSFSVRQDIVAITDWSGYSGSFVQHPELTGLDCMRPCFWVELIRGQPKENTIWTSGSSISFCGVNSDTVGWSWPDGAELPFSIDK

Row | Structure (SMILES) | IC50 [1] [µM] | IC10 on NA-1 activity [1] [µg/mL] | Inhibition of bacterial NA activity [2] | Inhibition of mouse liver sialidase [3] | IC50 on NA-1 activity [1] [µg/mL]
1 | O=C(O)[C@H]1O[C@@H](Oc2cc3oc(-c4ccccc4)cc(=O)c3c(O)c2O)[C@H](O)[C@@H](O)[C@@H]1O [Baicalin] | 1650 | – | – | – | –
2 | O=c1cc(-c2ccccc2)oc2cc(O)c(O)c(O)c12 [Baicalein] | 590 | 75.0 ± 29.1 (≈ 278 µM) | – | – | –
3 | COc1c(O)cc2oc(-c3ccccc3)cc(=O)c2c1O [Oroxylin A] | 202 | 5.1 ± 1.4 (≈ 17.9 µM) | – | – | –
4 | COc1cc2c(cc1OC)-c1cc3ccc(OC)c(OC)c3c[n+]1CC2 [Palmatine] | 50.5 | 2.1 ± 0.1 | inhibited | – | –
5 | COc1c(O[C@@H]2O[C@H](C(=O)O)[C@@H](O)[C@H](O)[C@H]2O)cc(O)c2c(=O)cc(-c3ccccc3)oc12 [Wogonoside] | 405 | 19.6 ± 2.7 (≈ 42.6 µM) | – | inhibited | –
6 | COc1cc2c(cc1O)C[C@H]1c3cc(O)c(OC)cc3CC[N@@+]1(C)C2 [Phellodendrine] | 599 | 23.1 ± 2.7 | – | – | –
7 | CCC(CC)[C@H](NC(C)=O)[C@@H]1[C@H](O)[C@@H](C(=O)O)C[C@H]1N=C(N)N [Peramivir, reference compound] | – | 64.8 ± 8.4 (≈ 197 µM) | – | – | 478.8 ± 15.6 (≈ 1460 µM)
8 | COc1ccc2cc3[n+](cc2c1OC)CCc1cc2c(cc1-3)OCO2 [Berberine] | 234 | 3.1 ± 0.8 | – | – | –
9 | COc1cc2c(cc1O)CC[n+]1cc3c(OC)c(OC)ccc3cc1-2 [Jatrorrhizine] | 67.1 | 1.9 ± 0.1 | inhibited | – | –
10 | COc1c(O[C@@H]2O[C@H](C(=O)O)[C@@H](O)[C@H](O)[C@H]2O)cc2oc(-c3ccccc3)cc(=O)c2c1O [Oroxylin A 7-O-β-D-glucuronide] | 621 | 29.3 ± 7.8 (≈ 63.6 µM) | – | – | –
11 | COc1cc2c(cc1OC)-c1cc3ccc4c(c3c[n+]1CC2)OCO4 [Epiberberine] | 99.9 | – | – | – | –
12 | COc1c(O)cc(O)c2c(=O)cc(-c3ccccc3)oc12 [Wogonin] | 866 | 34.0 ± 5.1 (≈ 120 µM) | – | inhibited | –
13 | COC(=O)C1=CO[C@@H](O[C@@H]2O[C@H](CO)[C@@H](O)[C@H](O)[C@H]2O)[C@@H]2C(CO)=CC[C@H]12 [Geniposide] | 87.5 | 2.8 ± 0.2 (≈ 7.21 µM) | – | – | –
14 | c1c2c(cc3c1OCO3)-c1cc3ccc4c(c3c[n+]1CC2)OCO4 [Coptisine] | 327 | – | inhibited | – | –
